According to patent US8124793B2, “Derivatives of ethylene methanedisulfonate as cancer chemotherapeutic agents” (priority 2007, dated 2012):

Key:
Type in all cases: cell-based
HL-60 (TB) = assay: NCI screen, growth of human tumor cells: Leukemia HL-60 (TB); settings: HL-60 (TB) (Leukemia), 10^−4 molar
Protocol: (§1) In the NCI screening process, each compound was tested and described by a minimum of 60 data points. The test data include, but are not limited to the type of cancer, the molar concentration used in the screen, and the percent growth of the cancer. In some cases, NMR and elemental analysis were used for structural assignment.

K562 = assay: NCI screen, growth of human tumor cells: Leukemia K562; settings: K562 (Leukemia), 10^−4 molar
Method in brief: (§2)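 Under the NCI protocol, every compound is profiled with sixty or more data points. Each point ties a cancer type and a molar screening concentration to a percent growth value.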

MOLT-4 = assay: NCI screen, growth of human tumor cells: Leukemia MOLT-4; settings: MOLT-4 (Leukemia), 10^−4 molar
Method in brief: as §2

RPMI-8226 = assay: NCI screen, growth of human tumor cells: Leukemia RPMI-8226; settings: RPMI-8226 (Leukemia), 10^−4 molar
Method in brief: as §2

SR = assay: NCI screen, growth of human tumor cells: Leukemia SR; settings: for % Growth: SR
Method in brief: as §2

EKVX = assay: NCI screen, growth of human tumor cells: Non-Small Cell Lung EKVX; settings: EKVX (Non-Small Cell Lung), 10^−4 molar
Method in brief: as §2

HOP-62 = assay: NCI screen, growth of human tumor cells: Non-Small Cell Lung HOP-62
Method in brief: as §2

HOP-18 = assay: NCI screen, growth of human tumor cells: Non-Small Cell Lung HOP-18; settings: HOP-18 (Non-Small Cell Lung), 10^−4 molar
Protocol: as §1

HOP-92 = assay: NCI screen, growth of human tumor cells: Non-Small Cell Lung HOP-92; settings: HOP-92 (Non-Small Cell Lung), 10^−4 molar
Method in brief: as §2

NCI-H226 = assay: NCI screen, growth of human tumor cells: Non-Small Cell Lung NCI-H226; settings: NCI-H226 (Non-Small Cell Lung), 10^−4 molar
Method in brief: as §2

NCI-H460 = assay: NCI screen, growth of human tumor cells: Non-Small Cell Lung NCI-H460; settings: NCI-H460 (Non-Small Cell Lung), 10^−4 molar
Method in brief: as §2

NCI-H322M = assay: NCI screen, growth of human tumor cells: Non-Small Cell Lung NCI-H322M; settings: NCI-H322M, 10^−4 molar
Protocol: as §1

NCI-H23 = assay: NCI screen, growth of human tumor cells: Non-Small Cell Lung NCI-H23; settings: NCI-H23, 10^−4 molar
Method in brief: as §2

COLO205 = assay: NCI screen, growth of human tumor cells: Colon Cancer COLO205; settings: COLO205 (Colon Cancer), 10^−4 molar
Method in brief: as §2

HCT-116 = assay: NCI screen, growth of human tumor cells: Colon Cancer HCT-116; settings: HCT-116, 10^−4 molar
Method in brief: as §2

HT29 = assay: NCI screen, growth of human tumor cells: Colon Cancer HT29; settings: HT29 (Colon Cancer), 10^−4 molar
Method in brief: as §2

KM12 = assay: NCI screen, growth of human tumor cells: Colon Cancer KM12; settings: KM12 (Colon Cancer), 10^−4 molar
Method in brief: as §2

SF-268 = assay: NCI screen, growth of human tumor cells: CNS Cancer SF-268; settings: SF-268 (CNS Cancer), 10^−4 molar
Method in brief: as §2

SF-295 = assay: NCI screen, growth of human tumor cells: CNS Cancer SF-295
Method in brief: as §2

SNB-19 = assay: NCI screen, growth of human tumor cells: CNS Cancer SNB-19; settings: SNB-19, 10^−4 molar
Method in brief: as §2

SF-539 = assay: NCI screen, growth of human tumor cells: CNS Cancer SF-539
Method in brief: as §2

SNB-75 = assay: NCI screen, growth of human tumor cells: CNS Cancer SNB-75; settings: SNB-75 (CNS Cancer), 10^−4 molar
Method in brief: as §2

M14 = assay: NCI screen, growth of human tumor cells: Melanoma M14; settings: M14, 10^−4 molar
Method in brief: as §2

SK-MEL-2 = assay: NCI screen, growth of human tumor cells: Melanoma SK-MEL-2; settings: SK-MEL-2 (Melanoma), 10^−4 molar
Method in brief: as §2

SK-MEL-28 = assay: NCI screen, growth of human tumor cells: Melanoma SK-MEL-28; settings: SK-MEL-28, 10^−4 molar
Method in brief: as §2

SK-MEL-5 = assay: NCI screen, growth of human tumor cells: Melanoma SK-MEL-5; settings: SK-MEL-5, 10^−4 molar
Method in brief: as §2

UACC-257 = assay: NCI screen, growth of human tumor cells: Melanoma UACC-257
Method in brief: as §2

UACC-62 = assay: NCI screen, growth of human tumor cells: Melanoma UACC-62
Method in brief: as §2

IGROVI = assay: NCI screen, growth of human tumor cells: Ovarian Cancer IGROVI; settings: IGROVI (Ovarian Cancer), 10^−4 molar
Method in brief: as §2

SK-OV-3 = assay: NCI screen, growth of human tumor cells: Ovarian Cancer SK-OV-3; settings: SK-OV-3 (Ovarian Cancer), 10^−4 molar
Protocol: as §1

OVCAR-3 = assay: NCI screen, growth of human tumor cells: Ovarian Cancer OVCAR-3; settings: OVCAR-3 (Ovarian Cancer), 10^−4 molar
Method in brief: as §2

OVCAR-5 = assay: NCI screen, growth of human tumor cells: Ovarian Cancer OVCAR-5
Method in brief: as §2

OVCAR-8 = assay: NCI screen, growth of human tumor cells: Ovarian Cancer OVCAR-8; settings: OVCAR-8 (Ovarian Cancer), 10^−4 molar
Protocol: as §1

RXF-393 = assay: NCI screen, growth of human tumor cells: Renal Cancer RXF-393; settings: RXF-393 (Renal Cancer), 10^−4 molar
Method in brief: as §2

TK-10 = assay: NCI screen, growth of human tumor cells: Renal Cancer TK-10; settings: TK-10 (Renal Cancer), 10^−4 molar
Protocol: as §1

SN12C = assay: NCI screen, growth of human tumor cells: Renal Cancer SN12C; settings: SN12C (Renal Cancer), 10^−4 molar
Method in brief: as §2

CAKI-1 = assay: NCI screen, growth of human tumor cells: Renal Cancer CAKI-1; settings: CAKI-1 (Renal Cancer), 10^−4 molar
Method in brief: as §2

UO-31 = assay: NCI screen, growth of human tumor cells: Renal Cancer UO-31; settings: UO-31 (Renal Cancer), 10^−4 molar
Method in brief: as §2

DU-145 = assay: NCI screen, growth of human tumor cells: Prostate Cancer DU-145; settings: DV-145, 10^−4 molar
Method in brief: as §2

MCF 7 = assay: NCI screen, growth of human tumor cells: Breast Cancer MCF 7; settings: MCF 7 (Breast Cancer), 10^−4 molar
Method in brief: as §2

MCF7/ADR-RES = assay: NCI screen, growth of human tumor cells: Breast Cancer MCF7/ADR-RES; settings: 10^−4 molar
Method in brief: as §2

BT-549 = assay: NCI screen, growth of human tumor cells: Breast Cancer BT-549; settings: BT-549 (Breast Cancer), 10^−4 molar
Method in brief: as §2

HS 578T = assay: NCI screen, growth of human tumor cells: Breast Cancer HS 578T; settings: HS 578T (Breast Cancer), 10^−4 molar
Method in brief: as §2

MDA-MB-435 = assay: NCI screen, growth of human tumor cells: Breast Cancer MDA-MB-435
Method in brief: as §2

human cancer cells = assay: NCI screen summary over the cancers tested (negative growth of human cancer cells); settings: cancers with negative growth / cancers tested
Protocol: as §1
The derivatives in the tables are grouped using the same category as in the tables 1-6.

SW620 = assay: NCI screen, growth of human tumor cells: Colon Cancer SW620
Protocol: as §1

U-251 = assay: NCI screen, growth of human tumor cells: CNS Cancer U-251; settings: U-251 (CNS Cancer), 10^−4 molar
Method in brief: as §2

LOXIMVI = assay: NCI screen, growth of human tumor cells: Melanoma LOXIMVI; settings: for % Growth: LOXIMVI
Protocol: as §1

786-0 = assay: NCI screen, growth of human tumor cells: Renal Cancer 786-0; settings: 786-0 (Renal Cancer), 10^−4 molar
Method in brief: as §2

ACHN = assay: NCI screen, growth of human tumor cells: Renal Cancer ACHN; settings: ACHN (Renal Cancer), 10^−4 molar
Method in brief: as §2

T-47D = assay: NCI screen, growth of human tumor cells: Breast Cancer T-47D; settings: T-47D (Breast Cancer), 10^−4 molar
Protocol: as §1

CC=CC(=O)C1(CC2=C(C)C(=O)c3ccccc3C2=O)S(=O)(=O)OCCOS1(=O)=O [NSC 731265]
percent of growth of human tumor cells (HL-60 (TB)): 2% | percent of growth of human tumor cells (K562): 11% | percent of growth of human tumor cells (MOLT-4): 2% | percent of growth of human tumor cells (RPMI-8226): −40% | % Growth (SR; 10^−4 molar): 12% | % Growth (SR; 10^−5 molar): 15% | % Growth (SR; 10^−6 molar): 57% | percent of growth of human tumor cells (EKVX): −57% | % Growth (HOP-62; HOP-62, 10^−4 molar): −80% | % Growth (HOP-62; HOP-62, 10^−5 molar): 49% | percent of growth of human tumor cells (HOP-18): −43% | percent of growth of human tumor cells (HOP-92): −43% | percent of growth of human tumor cells (NCI-H226): −4% | percent of growth of human tumor cells (NCI-H460): 5% | % Growth (NCI-H322M): −80% | % Growth (NCI-H23): −74% | percent of growth of human tumor cells (COLO205): −50% | % Growth (HCT-116): −100% | percent of growth of human tumor cells (HT29): −6% | percent of growth of human tumor cells (KM12): −16% | percent of growth of human tumor cells (SF-268): −49% | percent of growth of human tumor cells (SF-295; SF-295 (CNS Cancer), 10^−4 molar): −57% | % Growth (SNB-19): −87% | % Growth (SF-539; SF-539, 10^−4 molar): −79% | percent of growth of human tumor cells (SNB-75): −26% | % Growth (M14): −86% | percent of growth of human tumor cells (SK-MEL-2): 15% | % Growth (SK-MEL-28): −69% | % Growth (SK-MEL-5): −67% | % Growth (UACC-257; UACC-257, 10^−4 molar): −87% | % Growth (UACC-257; UACC-257, 10^−5 molar): 40% | percent of growth of human tumor cells (UACC-62; UACC-62 (Melanoma), 10^−4 molar): −13% | percent of growth of human tumor cells (IGROVI): 4% | percent of growth of human tumor cells (SK-OV-3): −61% | percent of growth of human tumor cells (OVCAR-3): 7% | % Growth (OVCAR-5; OVCAR-5, 10^−4 molar): −83% | % Growth (OVCAR-5; OVCAR-5, 10^−5 molar): 43% | % Growth (OVCAR-5; OVCAR-5, 10^−6 molar): 34% | % Growth (OVCAR-5; OVCAR-5, 10^−7 molar): 40% | % Growth (OVCAR-5; OVCAR-5, 10^−8 molar): 63% | percent of growth of human tumor cells (OVCAR-8): −38% | percent of growth of human tumor cells (RXF-393): −15% | percent of growth of human tumor cells (TK-10): −10% | percent of growth of human tumor cells (SN12C): −17% | percent of growth of human tumor cells (CAKI-1): −2% | percent of growth of human tumor cells (UO-31): −10% | % Growth (DU-145): −78% | percent of growth of human tumor cells (MCF 7): −8% | % Growth (MCF7/ADR-RES; MCF7/ADR-RES): −53% | percent of growth of human tumor cells (BT-549): −54% | percent of growth of human tumor cells (HS 578T): −18% | % Growth (MDA-MB-435; MDA-MB-435, 10^−4 molar): −71% | % Growth (MDA-MB-435; MDA-MB-435, 10^−5 molar): −66% | Percentage of cancers showing negative growth cancers tested (human cancer cells; 10^−4 M conc.): 79% | Percentage of cancers showing negative growth cancers tested (human cancer cells; 10^−5 M conc.): 20%

C[Si](C)(OCCS(=O)(=O)O)C1S(=O)(=O)OCCOS1(=O)=O [NSC 674991]
percent of growth of human tumor cells (HL-60 (TB)): 15% | percent of growth of human tumor cells (SR; SR (Leukemia), 10^−4 molar): 20% | percent of growth of human tumor cells (HOP-92): 22% | percent of growth of human tumor cells (NCI-H460): 22% | % Growth (SW620; SW620, 10^−4 molar): −49% | % Growth (SW620; SW620, 10^−5 molar): 34% | % Growth (SW620; SW620, 10^−6 molar): 25% | percent of growth of human tumor cells (SF-268): 11% | % Growth (SF-295; SF-295, 10^−4 molar): −31% | % Growth (SF-295; SF-295, 10^−5 molar): 31% | percent of growth of human tumor cells (SF-539; SF-539 (CNS Cancer), 10^−4 molar): 4% | percent of growth of human tumor cells (SNB-75): −24% | percent of growth of human tumor cells (U-251): 9% | percent of growth of human tumor cells (LOXIMVI; LOXIMVI (Melanoma), 10^−4 molar): 10% | % Growth (LOXIMVI; 10^−4 molar): −90% | % Growth (LOXIMVI; 10^−5 molar): 63% | % Growth (UACC-62; UACC-62, 10^−4 molar): 5% | % Growth (UACC-62; UACC-62, 10^−5 molar): 57% | percent of growth of human tumor cells (786-0): 16% | percent of growth of human tumor cells (ACHN): −10% | percent of growth of human tumor cells (CAKI-1): −8% | percent of growth of human tumor cells (UO-31): 29% | percent of growth of human tumor cells (MCF 7): 22% | percent of growth of human tumor cells (MCF7/ADR-RES; MCF7/ADR-RES (Breast Cancer)): 20% | percent of growth of human tumor cells (BT-549): 11% | percent of growth of human tumor cells (T-47D): 18% | Percentage of cancers showing negative growth cancers tested (human cancer cells; 10^−4 M conc.): 10^−4 M conc. = 6/21 = 28.6%
